Patent publication US20260335341A1, “METHODS FOR TREATING PAEDIATRIC NEUROLOGICAL DISORDERS” (Neurotech International Limited, priority 2022, published 2026)
Like-named read-outs stand apart in the source and are kept apart here.

What was measured:
[1] = Stability of NTI164 oil formulation at room temperature (UPLC)
TNF-ALPHA = assay: TNF-alpha in microglial culture media, psylocibin combination (Example 9); format: cell-based; conditions: PBS control 1.00, positive activation I&I 10.67
Protocol: Microglia media harvested following treatment initiation was centrifuged briefly to remove particulates (300 g for 10 min). The level of TNFα in the microglial culture media was measured using a Bio-Plex 200 with a 96-well magnetic plate assay according to the manufacturer's instructions (Bio-Rad). The samples were run in duplicate that were averaged for analysis. At least three samples per group were run.

[2] = NTI164 oil, room temperature, Day 14

| SMILES | Cannabinoid content of NTI164, Day 14 [1] [mg/mL] | Cannabinoid content of NTI164, Day 0 ([1]; NTI164 oil, room temperature) [mg/mL] | Cannabinoid content of NTI164, Day 2 ([1]; NTI164 oil, room temperature) [mg/mL] | Cannabinoid content of NTI164, Day 7 ([1]; NTI164 oil, room temperature) [mg/mL] | Cannabinoid content of NTI164, Day 28 ([1]; NTI164 oil, room temperature) [mg/mL] | Cannabinoid content of NTI164, Week 5 ([1]; NTI164 oil, room temperature) [mg/mL] | Cannabinoid content of NTI164, Week 6 ([1]; NTI164 oil, room temperature) [mg/mL] | Cannabinoid content of NTI164, Week 32 ([1]; NTI164 oil, room temperature) [mg/mL] | Cannabinoid content of NTI164, Day 14 [1, 2] [mg/mL] | TNF-alpha assessment result (TNF-ALPHA; 1 ug/ml) | TNF-alpha assessment result (TNF-ALPHA; 5 ug/ml) |
| --- | --- | --- | --- | --- | --- | --- | --- | --- | --- | --- | --- |
| CCCCCc1cc2c(c(O)c1C(=O)O)[C@@H]1C=C(C)CC[C@H]1C(C)(C)O2 [(Tetrahydrocannabinolic acid) (D9-THCA), Delta-9-tetrahydrocannabinolic acid] | 0.69 | 0.66 | 0.72 | 0.64 | 0.36 | 0.79 | 0.73 | <0.1 | – | – | – |
| CCCCCc1cc(O)c2c(c1)OC(C)(CCC=C(C)C)C=C2 (stereo not shown) [Cannabichrome(CBC), Cannabichromene] | – | 1.23 | 1.19 | 1.34 | 1.27 | 1.20 | 1.15 | 1.22 | 1.22 | – | – |
| C=C(C)[C@@H]1CCC(C)=C[C@H]1c1c(O)cc(CCCCC)c(C(=O)O)c1O [Cannabidiol acid (CBD-A), Cannabidiol acid] | – | 48.16 | 48.19 | 48.62 | 47.12 | 48.35 | 47.56 | 47.01 | 48.09 | – | – |
| C=C(C)[C@@H]1CCC(C)=C[C@H]1c1c(O)cc(CCC)cc1O [Cannabidivarin (CBDV), Cannabidivarin] | – | <0.1 | <0.1 | <0.1 | <0.1 | 0.10 | <0.1 | 0.13 | <0.1 | – | – |
| CCCCCc1cc(O)c(C/C=C(\C)CCC=C(C)C)c(O)c1 [Cannabigerol (CBG), Cannabigerol] | – | 5.21 | 5.23 | 5.14 | 5.1 | 5.30 | 5.28 | 5.12 | 5.1 | – | – |
| CCCCCc1cc(O)c(C/C=C(\C)CCC=C(C)C)c(O)c1C(=O)O [Cannabigerol Acid(CBG-A), Cannabigerolic acid] | – | 1.07 | 1.18 | 1.20 | 0.81 | 1.08 | 1.00 | 1.05 | 1.19 | – | – |
| CCCCCc1cc(O)c2c(c1)OC(C)(C)c1ccc(C)cc1-2 [Cannabinol (CBN), Cannabinol] | 2.33 | 2.32 | 2.54 | 2.48 | 2.56 | 2.22 | 2.27 | 2.21 | – | – | – |
| CCCCCc1cc(O)c2c(c1)OC(C)(C)C1CC=C(C)CC21 (stereo not shown) [DELTA-8-THC (D8-THC), Delta-8-tetrahydrocannabinol] | <0.1 | <0.1 | <0.1 | <0.1 | <0.1 | <0.1 | <0.1 | <0.1 | – | – | – |
| CN(C)CCc1c[nH]c2cccc(OP(=O)(O)O)c12 [SubP (Psylocibin), Psylocibin] | – | – | – | – | – | – | – | – | – | 4.87 | 9.17 |
| CCCCCc1cc(O)c2c(c1)OC(C)(C)[C@@H]1CCC(C)=C[C@@H]21 [Tetrahydrocannabinol (D9-THC), Delta-9-tetrahydrocannabinol] | – | <0.1 | <0.1 | <0.1 | <0.1 | 0.14 | <0.1 | 0.11 | <0.1 | – | – |
| CCCc1cc(O)c2c(c1)OC(C)(C)[C@@H]1CCC(C)=C[C@@H]21 [Tetrahydrocannabivarin (THCV), Tetrahydrocannabivarin] | <0.1 | <0.1 | <0.1 | <0.1 | <0.1 | <0.1 | <0.1 | <0.1 | – | – | – |
